The values below come from ChEMBL document CHEMBL1201862, “PubChem BioAssay data set” (2004).

Calls of active or inactive are those of the source. Some results are limits rather than exact numbers.

The target in assay [1] is T1, Oxysterols receptor LXR-beta (Homo sapiens, UniProt P55055).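 Further: agonist activity at LXR measured by a cell-based luminescence readout across a dose range, run as a counterscreen for daf-12 agonists; HEK293 cells with Gal4-LXR fusion and GAL4-driven luciferase reporter; potency for activation of Gal4-LXR reporter so compounds are agonists.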
T1 sequence (P55055 whole entry): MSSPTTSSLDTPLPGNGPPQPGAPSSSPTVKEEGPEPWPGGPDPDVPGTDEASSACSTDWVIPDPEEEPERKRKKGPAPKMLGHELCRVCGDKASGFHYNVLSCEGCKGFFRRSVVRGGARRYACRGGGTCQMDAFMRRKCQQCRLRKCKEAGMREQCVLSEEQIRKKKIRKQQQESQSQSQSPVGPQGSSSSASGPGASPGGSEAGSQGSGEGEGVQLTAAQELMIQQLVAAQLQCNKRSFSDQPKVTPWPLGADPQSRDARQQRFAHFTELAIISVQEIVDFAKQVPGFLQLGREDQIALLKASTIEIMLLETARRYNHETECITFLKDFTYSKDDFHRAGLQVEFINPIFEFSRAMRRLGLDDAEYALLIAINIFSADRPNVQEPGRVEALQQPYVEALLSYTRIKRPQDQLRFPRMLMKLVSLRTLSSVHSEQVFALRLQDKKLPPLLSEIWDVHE
In kind it is functional, cell-based.

Assay [2] has as its target T2, Sentrin-specific protease 7 (Homo sapiens, UniProt Q9BQF6).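 Further: Luminescence-based dose-response confirmation of ultra-high-throughput screening hits, measuring inhibition of SENP7.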
T2 sequence (Q9BQF6 whole entry): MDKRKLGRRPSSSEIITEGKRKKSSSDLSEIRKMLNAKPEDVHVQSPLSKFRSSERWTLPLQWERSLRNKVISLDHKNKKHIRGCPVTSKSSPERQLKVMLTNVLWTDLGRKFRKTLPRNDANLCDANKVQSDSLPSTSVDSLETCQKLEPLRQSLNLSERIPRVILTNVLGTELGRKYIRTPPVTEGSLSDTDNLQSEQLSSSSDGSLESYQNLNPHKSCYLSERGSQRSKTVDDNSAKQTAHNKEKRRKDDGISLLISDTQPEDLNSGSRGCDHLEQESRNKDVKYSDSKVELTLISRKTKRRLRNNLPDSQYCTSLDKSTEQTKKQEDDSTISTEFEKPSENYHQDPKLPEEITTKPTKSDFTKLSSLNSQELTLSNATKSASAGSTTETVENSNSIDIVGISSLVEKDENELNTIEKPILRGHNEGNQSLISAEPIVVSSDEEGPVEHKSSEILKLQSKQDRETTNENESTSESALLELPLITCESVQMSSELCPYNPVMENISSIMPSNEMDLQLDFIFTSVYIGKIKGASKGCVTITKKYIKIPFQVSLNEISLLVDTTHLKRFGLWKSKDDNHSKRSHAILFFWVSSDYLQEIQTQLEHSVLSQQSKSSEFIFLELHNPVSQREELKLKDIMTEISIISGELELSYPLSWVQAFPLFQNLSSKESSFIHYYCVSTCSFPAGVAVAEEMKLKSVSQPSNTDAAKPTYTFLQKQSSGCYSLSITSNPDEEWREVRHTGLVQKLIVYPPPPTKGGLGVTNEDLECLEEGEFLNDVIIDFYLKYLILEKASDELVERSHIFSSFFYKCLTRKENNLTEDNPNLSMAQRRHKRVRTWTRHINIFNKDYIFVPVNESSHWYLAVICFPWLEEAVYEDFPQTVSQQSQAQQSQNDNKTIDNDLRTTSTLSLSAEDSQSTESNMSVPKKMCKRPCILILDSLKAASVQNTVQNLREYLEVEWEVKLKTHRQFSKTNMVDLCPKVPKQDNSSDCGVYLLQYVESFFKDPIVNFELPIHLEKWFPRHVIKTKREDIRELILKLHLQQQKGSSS
Format: functional.

The target in assay [3] is T3, Sentrin-specific protease 6 (Homo sapiens, UniProt Q9GZR1).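 Further: Luminescence-based dose-response confirmatory assay of SENP6 inhibition, following up an ultra-high-throughput screen.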
T3 sequence (Q9GZR1 whole entry): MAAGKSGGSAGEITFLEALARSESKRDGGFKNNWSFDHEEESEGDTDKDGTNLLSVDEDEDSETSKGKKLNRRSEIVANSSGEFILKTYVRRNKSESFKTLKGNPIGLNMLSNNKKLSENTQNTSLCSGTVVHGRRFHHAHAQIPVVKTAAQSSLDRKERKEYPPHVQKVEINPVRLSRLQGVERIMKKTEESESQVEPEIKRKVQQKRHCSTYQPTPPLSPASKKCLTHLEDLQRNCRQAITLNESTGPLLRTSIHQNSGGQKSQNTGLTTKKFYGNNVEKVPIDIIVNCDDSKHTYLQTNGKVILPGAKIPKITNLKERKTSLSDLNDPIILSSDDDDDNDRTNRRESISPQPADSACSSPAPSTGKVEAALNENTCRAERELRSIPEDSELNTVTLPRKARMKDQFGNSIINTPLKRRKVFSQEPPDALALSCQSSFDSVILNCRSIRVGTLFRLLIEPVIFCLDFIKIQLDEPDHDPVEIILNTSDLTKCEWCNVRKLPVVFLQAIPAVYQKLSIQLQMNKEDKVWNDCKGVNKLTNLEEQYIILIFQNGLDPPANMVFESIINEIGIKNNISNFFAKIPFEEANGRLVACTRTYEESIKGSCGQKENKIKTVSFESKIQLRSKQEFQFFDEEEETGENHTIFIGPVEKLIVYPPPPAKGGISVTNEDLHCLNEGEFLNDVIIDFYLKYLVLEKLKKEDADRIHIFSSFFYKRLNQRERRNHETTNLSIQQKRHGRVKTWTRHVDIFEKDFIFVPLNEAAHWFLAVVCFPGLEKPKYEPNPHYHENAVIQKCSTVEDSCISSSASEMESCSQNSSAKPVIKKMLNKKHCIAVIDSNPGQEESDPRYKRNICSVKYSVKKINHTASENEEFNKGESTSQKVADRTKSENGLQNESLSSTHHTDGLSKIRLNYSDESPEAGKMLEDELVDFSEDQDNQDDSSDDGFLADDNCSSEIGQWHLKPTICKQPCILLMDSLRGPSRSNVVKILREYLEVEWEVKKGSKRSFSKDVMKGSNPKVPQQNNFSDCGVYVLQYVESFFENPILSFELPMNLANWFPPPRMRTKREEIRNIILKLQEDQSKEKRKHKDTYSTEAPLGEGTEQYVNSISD
In kind it is functional.

In assay [4] the target is T4, Sentrin-specific protease 8 (Homo sapiens, UniProt Q96LD8).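 Further: luminescence read-out of SENP8 inhibition, dose-response confirmation following an ultra-high-throughput screen.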
T4 sequence (Q96LD8 whole entry): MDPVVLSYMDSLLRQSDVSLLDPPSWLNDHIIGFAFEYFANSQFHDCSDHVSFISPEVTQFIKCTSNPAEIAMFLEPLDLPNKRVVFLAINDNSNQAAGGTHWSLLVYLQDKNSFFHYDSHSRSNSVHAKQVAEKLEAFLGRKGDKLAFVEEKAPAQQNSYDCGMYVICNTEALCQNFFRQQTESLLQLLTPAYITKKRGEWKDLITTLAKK
Format: functional.

The next assay deals with T5, Caspase-3 (Homo sapiens, UniProt P42574).
T5 sequence (P42574 whole entry): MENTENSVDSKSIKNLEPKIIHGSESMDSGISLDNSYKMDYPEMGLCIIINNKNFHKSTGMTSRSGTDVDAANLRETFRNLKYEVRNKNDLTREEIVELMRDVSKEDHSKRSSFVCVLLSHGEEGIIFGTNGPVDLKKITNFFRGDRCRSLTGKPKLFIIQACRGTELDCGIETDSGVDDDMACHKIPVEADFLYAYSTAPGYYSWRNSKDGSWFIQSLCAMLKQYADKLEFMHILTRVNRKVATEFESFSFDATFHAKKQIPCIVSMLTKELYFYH
Format: functional.

Assay [5] deals with T6, Endoribonuclease toxin MazF (Escherichia coli K-12, UniProt P0AE70).
T6 sequence (P0AE70 whole entry): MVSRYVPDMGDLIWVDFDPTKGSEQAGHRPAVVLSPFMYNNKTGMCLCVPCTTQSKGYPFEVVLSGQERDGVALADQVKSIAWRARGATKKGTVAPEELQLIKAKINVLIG
As to the kind of experiment: fluorescent RNA oligo signal without MazF, dose response, counter-screen for MazEF activator project, biochemical, fluorescence, single-stranded RNase substrate (AID 588502). In kind it is functional.

In assay [6] the target is T6, Endoribonuclease toxin MazF. Nature of the assay: MazF toxin RNase activators, dose response, biochemical, fluorescence, single-stranded RNA substrate, uHTS hits (AID 588481). Format: functional.
Assay [7] concerns the target T7, Corticotropin-releasing factor receptor 2/Corticotropin-releasing factor-binding protein (Homo sapiens, UniProt P24387+Q13324).
T7 sequence (Q13324 whole entry): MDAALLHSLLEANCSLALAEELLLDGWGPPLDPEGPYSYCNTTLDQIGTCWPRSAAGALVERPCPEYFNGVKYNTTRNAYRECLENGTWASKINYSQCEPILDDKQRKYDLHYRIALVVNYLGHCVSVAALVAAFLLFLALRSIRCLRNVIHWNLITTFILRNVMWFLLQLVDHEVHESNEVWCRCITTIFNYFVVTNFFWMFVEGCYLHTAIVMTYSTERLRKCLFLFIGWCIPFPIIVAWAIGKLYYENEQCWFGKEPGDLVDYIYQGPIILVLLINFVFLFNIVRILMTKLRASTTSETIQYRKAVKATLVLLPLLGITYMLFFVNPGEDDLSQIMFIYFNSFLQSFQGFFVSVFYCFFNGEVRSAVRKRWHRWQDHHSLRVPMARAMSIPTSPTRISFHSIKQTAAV
T7 sequence (P24387 whole entry): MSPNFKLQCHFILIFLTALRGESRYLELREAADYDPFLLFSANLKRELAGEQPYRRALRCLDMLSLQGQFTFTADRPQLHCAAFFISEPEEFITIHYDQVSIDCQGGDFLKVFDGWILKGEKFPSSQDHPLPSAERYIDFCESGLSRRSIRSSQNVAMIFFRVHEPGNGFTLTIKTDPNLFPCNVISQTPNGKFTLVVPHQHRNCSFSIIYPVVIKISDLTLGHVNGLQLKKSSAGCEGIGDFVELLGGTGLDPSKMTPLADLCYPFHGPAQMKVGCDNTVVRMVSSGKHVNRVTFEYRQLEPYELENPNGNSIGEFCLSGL
Nature of the assay: activators of CRF receptor 2 with binding protein – uHTS hits, confirmation (AID 602473). In kind it is functional. The settings on record: read-out: EC50_Mean.

In the next assay the test system is HEK293. Nature of the assay: inhibitors of LMP1-driven NF-kB reporter, dose response, cell-based, HEK293, luciferase, cherry-pick (AID 588343). The settings on record: Homo sapiens. In kind it is functional.
For assay [8], the target named is T8, Short transient receptor potential channel 4 (Mus musculus, UniProt Q9QUQ5).
T8 sequence (Q9QUQ5 whole entry): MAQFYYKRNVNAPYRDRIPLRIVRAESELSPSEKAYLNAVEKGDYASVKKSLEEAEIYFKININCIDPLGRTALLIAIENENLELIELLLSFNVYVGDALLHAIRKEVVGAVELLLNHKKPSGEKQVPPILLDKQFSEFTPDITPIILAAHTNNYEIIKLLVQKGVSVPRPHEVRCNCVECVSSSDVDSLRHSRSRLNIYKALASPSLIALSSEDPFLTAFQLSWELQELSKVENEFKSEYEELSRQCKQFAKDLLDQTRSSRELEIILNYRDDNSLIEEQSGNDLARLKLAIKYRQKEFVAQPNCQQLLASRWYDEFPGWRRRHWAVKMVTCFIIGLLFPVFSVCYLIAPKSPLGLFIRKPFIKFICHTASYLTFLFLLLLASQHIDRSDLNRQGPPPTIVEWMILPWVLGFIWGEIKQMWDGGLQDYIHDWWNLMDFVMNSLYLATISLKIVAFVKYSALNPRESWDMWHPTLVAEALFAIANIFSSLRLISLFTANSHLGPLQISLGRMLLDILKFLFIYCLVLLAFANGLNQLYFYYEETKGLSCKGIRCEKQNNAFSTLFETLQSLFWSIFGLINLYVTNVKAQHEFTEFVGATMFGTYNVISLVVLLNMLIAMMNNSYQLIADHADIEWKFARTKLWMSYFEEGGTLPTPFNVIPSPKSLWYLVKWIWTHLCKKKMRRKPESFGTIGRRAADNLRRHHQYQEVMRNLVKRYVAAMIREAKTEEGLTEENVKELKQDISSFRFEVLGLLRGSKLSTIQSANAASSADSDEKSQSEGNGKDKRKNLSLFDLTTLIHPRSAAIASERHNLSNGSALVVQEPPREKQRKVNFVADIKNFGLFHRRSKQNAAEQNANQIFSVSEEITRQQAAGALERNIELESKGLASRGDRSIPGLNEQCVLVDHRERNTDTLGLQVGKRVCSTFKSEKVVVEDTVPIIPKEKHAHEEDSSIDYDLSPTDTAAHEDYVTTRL
Nature of the assay: mouse TRPC4 channel inhibitors, dose response, cell-based, HEK293 TRPC4/mu-opioid, Fluo-4 calcium (AID 434942).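 Further: potency of inhibitors blocking the TRPC4 calcium response.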 In kind it is functional.

Regarding `Cc1c(C(=O)Nc2ccccc2)csc1-c1ccccc1`, the EC50 in assay [1] was > 67.5 µM (inactive). The IC50 in assay [2] was 8.96 µM (active); in [3], 6.64 µM (active); in assay [4], 7.47 µM (active); at Caspase-3 it was 19.3 µM (active).

In the case of `CCN(CC)S(=O)(=O)c1ccc2oc(Nc3ccccc3)nc2c1`, the IC50 in assay [2] was 9.19 µM (active); in [3] it was > 100 µM (inactive); in [4] it was > 100 µM (inactive); at Caspase-3, 29.7 µM (active).

`CCOc1ccc(S(=O)(=O)NN)cc1`: the EC50 in assay [5] was 23.9 µM (inactive); in [6] it was > 99 µM (inactive).

Regarding `CCCNC(=O)Cn1c(=O)/c(=C\c2ccc(-c3cccc([N+](=O)[O-])c3)o2)s/c1=C\C(=O)C(C)(C)C`, the EC50 in assay [5] was > 99 µM (inactive); in [6] it was > 99 µM (inactive); in assay [7], > 53 µM (inactive).

In the case of `Cc1ccc(CN2CCN(CC(=O)N/N=C/c3ccccc3F)CC2)cc1`, the IC50 is 14.3 µM (active) in assay [2], 27 µM (active) in assay [3], > 100 µM (inactive) in assay [4] and 34.4 µM (active) on Caspase-3.

In the case of `CCn1c2ccccc2c2cc(/C=N/NC(=O)c3cc(O)cc(O)c3)ccc21`, the AC50 in the assay on HEK293 was 8.43 µM (active). The EC50 in assay [8] was 749 nM (active).

A word on the IC50: it is the concentration that inhibits the measured activity by half. By AC50 is commonly meant the concentration giving half of the maximal activity seen.
